From ChEMBL document CHEMBL1144566, “Synthesis, anti-tuberculosis activity, and 3D-QSAR study of 4-(adamantan-1-yl)-2-substituted quinolines” (Bioorg Med Chem, 2007)

Assays:
[1] = tested on: Mycobacterium tuberculosis; test: Antimycobacterial activity against drug-sensitive Mycobacterium tuberculosis H37Rv at 6.250 ug/mL relative to isoniazid by microplate alamar blue assay; assay type: functional
[2] = tested on: Mycobacterium tuberculosis; test: Antimycobacterial activity against drug-sensitive Mycobacterium tuberculosis H37Rv by microplate alamar blue assay; assay type: functional, organism-based
[3] = tested on: Mycobacterium tuberculosis; test: Antimycobacterial activity against drug-sensitive Mycobacterium tuberculosis H37Rv at 3.125 ug/mL relative to isoniazid by microplate alamar blue assay; assay type: functional
[4] = tested on: Mycobacterium tuberculosis; test: Antimycobacterial activity against drug-sensitive Mycobacterium tuberculosis H37Rv at 1000 ug/mL relative to isoniazid by microplate alamar blue assay; assay type: functional

Row | Structure (SMILES) | inhibition at 6.25 µg/mL [1] | IC50 [2] | inhibition at 3.125 µg/mL [3] | inhibition at 1000 µg/mL [4]
1 | C=CCN(CC=C)NC(=O)c1cc(C23CC4CC(CC(C4)C2)C3)c2ccccc2n1 | 22% | 55 µM |  | 
2 | CCCN(CCC)NC(=O)c1cc(C23CC4CC(CC(C4)C2)C3)c2ccccc2n1 | 75% | 5.13 µM |  | 
3 | O=C(NNC1CCCC1)c1cc(C23CC4CC(CC(C4)C2)C3)c2ccccc2n1 |  | 0.0813 µM | 99% | 
4 | O=C(NNCCCc1ccccc1)c1cc(C23CC4CC(CC(C4)C2)C3)c2ccccc2n1 | 50% | 14.1 µM |  | 
5 | CCCNNC(=O)c1cc(C23CC4CC(CC(C4)C2)C3)c2ccccc2n1 | 82% | 3.8 µM |  | 
6 | O=C(N/N=C/c1ccncc1)c1cc(C23CC4CC(CC(C4)C2)C3)c2ccccc2n1 | 70% | 6.46 µM |  | 
7 | CCC(C)NNC(=O)c1cc(C23CC4CC(CC(C4)C2)C3)c2ccccc2n1 (stereo not drawn) | 97% | 0.513 µM |  | 
8 | O=C(NN(C(=O)c1ccccc1)C(=O)c1ccccc1)c1cc(C23CC4CC(CC(C4)C2)C3)c2ccccc2n1 | 51% | 11.2 µM |  | 
9 | CC/C=N/NC(=O)c1cc(C23CC4CC(CC(C4)C2)C3)c2ccccc2n1 | 69% | 7.76 µM |  | 
10 | O=C(NNCCc1ccccc1)c1cc(C23CC4CC(CC(C4)C2)C3)c2ccccc2n1 | 65% | 7.94 µM |  | 
11 | O=C(N/N=C/c1ccc[nH]1)c1cc(C23CC4CC(CC(C4)C2)C3)c2ccccc2n1 |  | 0.0794 µM | 99% | 
12 | O=C(N/N=C/c1c(F)c(F)c(F)c(F)c1F)c1cc(C23CC4CC(CC(C4)C2)C3)c2ccccc2n1 | 16% | 66.1 µM |  | 
13 | O=C(N/N=C/c1ccnc2cc(Cl)ccc12)c1cc(C23CC4CC(CC(C4)C2)C3)c2ccccc2n1 | 95% | 0.661 µM |  | 
14 | COc1ccc(/C=N/NC(=O)c2cc(C34CC5CC(CC(C5)C3)C4)c3ccccc3n2)c2ccccc12 | 57% | 9.55 µM |  | 
15 | O=C(NNc1cccc(F)c1)c1cc(C23CC4CC(CC(C4)C2)C3)c2ccccc2n1 |  | 0.0759 µM | 99% | 
16 | O=C(N/N=C/c1cccs1)c1cc(C23CC4CC(CC(C4)C2)C3)c2ccccc2n1 |  | 0.0759 µM | 99% | 
17 | CCCCNNC(=O)c1cc(C23CC4CC(CC(C4)C2)C3)c2ccccc2n1 | 55% | 13.5 µM |  | 
18 | CN(C)c1ccc(/C=N/NC(=O)c2cc(C34CC5CC(CC(C5)C3)C4)c3ccccc3n2)c2ccccc12 | 79% | 3.31 µM |  | 
19 | O=C(N/N=C/c1ccco1)c1cc(C23CC4CC(CC(C4)C2)C3)c2ccccc2n1 |  | 0.0794 µM | 99% | 
20 | CCCCN(CCCC)NC(=O)c1cc(C23CC4CC(CC(C4)C2)C3)c2ccccc2n1 | 64% | 8.13 µM |  | 
21 | O=C(N/N=C/c1ccc(O)cc1)c1cc(C23CC4CC(CC(C4)C2)C3)c2ccccc2n1 | 73% | 5.37 µM |  | 
22 | O=C(NNC1CCCCC1)c1cc(C23CC4CC(CC(C4)C2)C3)c2ccccc2n1 |  | 0.0776 µM | 99% | 

Row | Structure (SMILES) | inhibition at 6.25 µg/mL [1] | IC50 [2] | inhibition at 3.125 µg/mL [3] | inhibition at 1000 µg/mL [4]
23 | O=C(NN(CCCc1ccccc1)CCCc1ccccc1)c1cc(C23CC4CC(CC(C4)C2)C3)c2ccccc2n1 | 45% | 13.8 µM |  | 
24 | NNC(=O)c1cc(C23CC4CC(CC(C4)C2)C3)c2ccccc2n1 | 99% | 0.195 µM |  | 
25 | O=C(NN(CCc1ccccc1)CCc1ccccc1)c1cc(C23CC4CC(CC(C4)C2)C3)c2ccccc2n1 | 55% | 9.55 µM |  | 
26 | CC(=O)NNC(=O)c1cc(C23CC4CC(CC(C4)C2)C3)c2ccccc2n1 |  | 0.0871 µM | 99% | 
27 | CC(C)(C)/C=N/NC(=O)c1cc(C23CC4CC(CC(C4)C2)C3)c2ccccc2n1 | 10% | 145 µM |  | 
28 | O=C(NNc1ccc(F)cc1)c1cc(C23CC4CC(CC(C4)C2)C3)c2ccccc2n1 | 93% | 1.12 µM |  | 
29 | O=C(N/N=C/c1ccccn1)c1cc(C23CC4CC(CC(C4)C2)C3)c2ccccc2n1 | 84% | 2.88 µM |  | 
30 | O=C(N/N=C/c1cccnc1)c1cc(C23CC4CC(CC(C4)C2)C3)c2ccccc2n1 | 53% | 13.5 µM |  | 
31 | O=C(N/N=C/c1ccnc2ccccc12)c1cc(C23CC4CC(CC(C4)C2)C3)c2ccccc2n1 |  | 0.0692 µM | 99% | 
32 | O=C(N/N=C/c1ccc(C(F)(F)F)cc1C(F)(F)F)c1cc(C23CC4CC(CC(C4)C2)C3)c2ccccc2n1 | 64% | 6.46 µM |  | 
33 | O=C(N/N=C/c1c2ccccc2cc2ccccc12)c1cc(C23CC4CC(CC(C4)C2)C3)c2ccccc2n1 | 66% | 6.31 µM |  | 
34 | O=CNNC(=O)c1cc(C23CC4CC(CC(C4)C2)C3)c2ccccc2n1 | 19% | 75.9 µM |  | 
35 | O=C(N/N=C/c1ccccc1)c1cc(C23CC4CC(CC(C4)C2)C3)c2ccccc2n1 |  | 0.0776 µM | 99% | 
36 | COc1ccc2ccccc2c1/C=N/NC(=O)c1cc(C23CC4CC(CC(C4)C2)C3)c2ccccc2n1 | 69% | 5.75 µM |  | 
37 | CCCCCCNNC(=O)c1cc(C23CC4CC(CC(C4)C2)C3)c2ccccc2n1 | 77% | 4.79 µM |  | 
38 | COc1ccc(/C=N/NC(=O)c2cc(C34CC5CC(CC(C5)C3)C4)c3ccccc3n2)cc1 | 20% | 56.2 µM |  | 
39 | CCCCCCN(CCCCCC)NC(=O)c1cc(C23CC4CC(CC(C4)C2)C3)c2ccccc2n1 | 65% | 7.24 µM |  | 
40 | O=C(N/N=C/c1ccccc1Cl)c1cc(C23CC4CC(CC(C4)C2)C3)c2ccccc2n1 |  | 0.0229 µM |  | 99%
41 | CC(C)/C=N/NC(=O)c1cc(C23CC4CC(CC(C4)C2)C3)c2ccccc2n1 | 63% | 9.77 µM |  | 
42 | O=C(N/N=C/c1cccc(O)c1)c1cc(C23CC4CC(CC(C4)C2)C3)c2ccccc2n1 | 99% | 0.148 µM |  | 
43 | O=C(NNc1ccccc1F)c1cc(C23CC4CC(CC(C4)C2)C3)c2ccccc2n1 | 99% | 0.151 µM |  | 
44 | CC(C)NNC(=O)c1cc(C23CC4CC(CC(C4)C2)C3)c2ccccc2n1 | 51% | 16.6 µM |  | 
